# Measurements from paper PMC12337661, “PIEZO1 mechanical insensitivity in generalized lymphatic dysplasia with the potential for pharmacological rescue” (iScience, 2025).
# Key:
# Assay in all cases: Intracellular Ca2+ measurement (fura-2), T-REx-293 cells stably transfected
# Type in all cases: cell-based
# E824V mPIEZO1 = target: T1, E824V mPIEZO1 (Mus musculus, UniProt E2JF22, E824V); details: normalized to the WT Yoda1 maximum response
# T1 construct: expressed in transfected cells
# Procedure: (§1) T-REx-293 cell line was transfected with pcDNA4/TO-mPIEZO1 constructs using Lipofectamine 2000 (Invitrogen) as above and treated with 200 μg.mL^−1 zeocin (InvivoGen) to select for stably transfected cells. At least two strongly expressing clonal cell lines were established and tested for each variant. All cell lines were maintained in Dulbecco’s Modified Eagle’s medium (Invitrogen) supplemented with 10% heat-inactivated fetal calf serum (Sigma-Aldrich), penicillin (50 units.mL^−1) and streptomycin (0.5 mg.mL^−1) (Sigma-Aldrich) and grown at 37°C in a humidified 5% CO2 incubator.
# (§2) For intracellular Ca^2+ assays, cells were plated at 80–90% confluence in 96-well plates 24 h prior to recordings (6–8 × 10^4 cells per well). […] Cells were washed with SBS and incubated at room temperature for 20 min prior to recordings. Equal volumes of 2x concentrated compounds were injected to test for acute channel activation. Pre-incubation with compounds occurred during the 20 min prior to recordings. To expose cell membranes to hypo-osmolality, an equal volume of hypotonic SBS (containing only 35 mM NaCl) was injected onto the cells. Measurements were made on a fluorescence plate reader (Flexstation III, Molecular Devices) at room temperature (21 ± 2°C). Fura-2 was excited at 340 nm and 380 nm and emitted light collected at 510 nm, with measurements shown as the change in fluorescence (F) ratio (ΔF340/380).
# (§3) KC41 (Dooku1) was prepared as described.[28] All purchased chemicals and solvents were used without further purification unless otherwise stated. All compounds were at least 95% pure by 1H NMR. 1H Nuclear Magnetic Resonance spectra were recorded at 500 MHz using a Bruker DRX 500 instrument or at 400 MHz using a Bruker DPX 400. 1H spectra are referenced based on the residual proton in the solvent (e.g., the CHCl3, 0.01% in 99.99% CDCl3). Coupling constants (J) are reported to the nearest 0.1 Hz. 13C NMR spectra were recorded at 125 MHz on 500 MHz spectrometers or at 100 MHz on 400 MHz spectrometers. LC-MS was performed on a Bruker Daltronics running a gradient of increasing acetonitrile (5–95%) in H2O both containing 0.1% formic acid at 1 mL.min^−1, on a short path C18 reverse phase column, detecting compounds with both a diode array detector and a Bruker mass spectrum analyser. HRMS was performed on a Bruker Daltonics micrOTOF using positive electrospray ionisation (ES+). Automated column chromatograph was carried out using a Biotage Isolera Four, using either Sfär Silica D or KP-Silica cartridges. HPLC was performed on an Agilent 1290 Infinity Series equipped with a UV detector and Hyperprep C18 reverse phase column. Key to NMR abbreviations: s (singlet), br s (broad singlet) d (doublet), dd (doublet of doublets), ddd (doublet of doublets of doublets), t (triplet), dt (doublet of triples), q (quartet), m (multiplet), ap. t (apparent triplet). For experiments, Yoda1 and its analogues were prepared as 10 mM stock solutions in 100% dimethyl sulfoxide (DMSO) before serial dilution in DMSO and final dilution in aqueous solution. Cells were exposed to 0.1% DMSO for all concentrations of the compounds from 0 to 10 μM.
# G1994D mPIEZO1 = target: T2, G1994D mPIEZO1 (Mus musculus, UniProt E2JF22, G1994D); details: for Mean (concentration-response, Figure 5g): G1994D
# T2 construct: expressed in transfected cells
# T2 sequence (E2JF22 whole entry G1994D): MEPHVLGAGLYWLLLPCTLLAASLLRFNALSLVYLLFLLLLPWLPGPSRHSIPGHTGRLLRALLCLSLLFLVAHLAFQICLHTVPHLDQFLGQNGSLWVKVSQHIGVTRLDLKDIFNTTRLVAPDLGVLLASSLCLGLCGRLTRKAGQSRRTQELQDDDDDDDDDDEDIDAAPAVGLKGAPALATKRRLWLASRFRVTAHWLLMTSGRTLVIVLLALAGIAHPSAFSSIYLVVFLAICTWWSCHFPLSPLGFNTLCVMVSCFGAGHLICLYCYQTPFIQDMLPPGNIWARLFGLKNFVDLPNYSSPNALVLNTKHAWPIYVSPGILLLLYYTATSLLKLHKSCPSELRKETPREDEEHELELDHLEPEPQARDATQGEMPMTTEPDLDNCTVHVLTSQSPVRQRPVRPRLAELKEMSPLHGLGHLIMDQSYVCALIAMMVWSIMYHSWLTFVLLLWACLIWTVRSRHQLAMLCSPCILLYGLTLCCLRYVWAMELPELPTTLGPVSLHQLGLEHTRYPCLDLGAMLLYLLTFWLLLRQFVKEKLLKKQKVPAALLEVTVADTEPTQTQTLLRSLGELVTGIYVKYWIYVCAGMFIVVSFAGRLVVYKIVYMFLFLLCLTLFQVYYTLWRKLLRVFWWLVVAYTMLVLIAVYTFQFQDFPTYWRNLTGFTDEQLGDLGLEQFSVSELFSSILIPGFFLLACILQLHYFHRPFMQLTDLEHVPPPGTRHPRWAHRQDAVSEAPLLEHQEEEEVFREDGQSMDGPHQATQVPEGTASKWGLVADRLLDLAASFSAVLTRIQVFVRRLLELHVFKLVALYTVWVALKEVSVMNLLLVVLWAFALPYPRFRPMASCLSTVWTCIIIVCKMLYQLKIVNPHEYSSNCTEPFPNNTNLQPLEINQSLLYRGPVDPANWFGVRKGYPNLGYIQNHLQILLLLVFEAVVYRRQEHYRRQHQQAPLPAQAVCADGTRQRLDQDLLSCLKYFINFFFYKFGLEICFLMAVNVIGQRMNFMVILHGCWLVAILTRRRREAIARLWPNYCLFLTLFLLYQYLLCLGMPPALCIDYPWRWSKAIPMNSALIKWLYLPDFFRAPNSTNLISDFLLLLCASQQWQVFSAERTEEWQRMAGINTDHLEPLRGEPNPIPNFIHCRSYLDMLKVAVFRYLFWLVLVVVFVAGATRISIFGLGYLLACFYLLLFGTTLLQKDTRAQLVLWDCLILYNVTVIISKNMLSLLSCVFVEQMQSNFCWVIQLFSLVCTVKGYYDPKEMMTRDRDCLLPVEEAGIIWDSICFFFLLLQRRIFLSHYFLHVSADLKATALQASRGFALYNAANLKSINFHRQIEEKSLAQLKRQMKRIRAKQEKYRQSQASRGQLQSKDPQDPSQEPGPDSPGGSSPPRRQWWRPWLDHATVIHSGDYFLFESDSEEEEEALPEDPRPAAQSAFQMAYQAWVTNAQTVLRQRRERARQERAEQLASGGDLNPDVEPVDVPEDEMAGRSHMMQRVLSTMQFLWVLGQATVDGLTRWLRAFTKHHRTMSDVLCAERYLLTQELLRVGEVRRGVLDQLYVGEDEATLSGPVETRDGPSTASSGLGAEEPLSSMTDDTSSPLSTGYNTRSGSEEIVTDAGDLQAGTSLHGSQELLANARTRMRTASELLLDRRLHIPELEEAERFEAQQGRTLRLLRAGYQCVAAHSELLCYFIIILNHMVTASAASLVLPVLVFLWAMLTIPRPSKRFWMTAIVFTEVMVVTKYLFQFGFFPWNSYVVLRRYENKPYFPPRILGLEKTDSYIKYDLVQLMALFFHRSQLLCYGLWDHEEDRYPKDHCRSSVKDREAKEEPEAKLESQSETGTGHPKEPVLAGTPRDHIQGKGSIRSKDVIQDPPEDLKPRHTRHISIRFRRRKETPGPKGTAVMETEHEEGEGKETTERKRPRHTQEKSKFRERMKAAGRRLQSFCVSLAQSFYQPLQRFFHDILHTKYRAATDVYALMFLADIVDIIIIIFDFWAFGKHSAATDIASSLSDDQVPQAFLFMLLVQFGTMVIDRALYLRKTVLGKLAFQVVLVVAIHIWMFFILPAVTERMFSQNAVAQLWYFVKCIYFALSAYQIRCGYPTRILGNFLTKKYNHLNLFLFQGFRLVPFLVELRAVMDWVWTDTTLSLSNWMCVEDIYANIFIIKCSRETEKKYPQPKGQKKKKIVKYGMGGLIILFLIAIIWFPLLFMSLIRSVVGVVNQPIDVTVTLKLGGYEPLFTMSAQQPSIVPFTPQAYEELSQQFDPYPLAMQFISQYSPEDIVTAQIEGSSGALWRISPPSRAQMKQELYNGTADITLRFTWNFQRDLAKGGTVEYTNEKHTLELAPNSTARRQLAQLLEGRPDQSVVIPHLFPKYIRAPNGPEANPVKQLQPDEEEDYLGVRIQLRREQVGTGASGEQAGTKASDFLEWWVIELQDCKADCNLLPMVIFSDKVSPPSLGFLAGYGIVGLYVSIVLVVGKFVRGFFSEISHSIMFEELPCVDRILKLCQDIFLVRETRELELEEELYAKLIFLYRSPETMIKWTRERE
# Procedure: as §1, §2, §3
# R2351Q mPIEZO1 = target: T3, R2351Q mPIEZO1 (Mus musculus, UniProt E2JF22, R2351Q); details: for Mean (Ca2+ signal time course, Figure 4f) / Mean (concentration-response, Figure 4g): R2351Q
# T3 construct: expressed in transfected cells
# T3 sequence (E2JF22 whole entry R2351Q): as the sequence (E2JF22 whole entry G1994D) above, with D1994G, R2351Q counted along it
# Procedure: as §1, §2, §3
# WT mPIEZO1 = target: T4, WT mPIEZO1 (Mus musculus, UniProt E2JF22); details: 1.5 min exposure; fitted Hill equation
# T4 construct: expressed in transfected cells
# T4 sequence (E2JF22 whole entry): as the sequence (E2JF22 whole entry G1994D) above, with D1994G counted along it
# Procedure: as §1, §2, §3
# T1 sequence (E2JF22 whole entry E824V): as the sequence (E2JF22 whole entry G1994D) above, with E824V, D1994G counted along it
smiles,measurement,setting,value
"O=C(O)c1ccc(-c2cnc(SCc3c(Cl)cccc3Cl)s2)cc1 [Yoda2b, 4-(2-([(2,6-Dichlorophenyl)methyl]sulfanyl)-1,3-thiazol-5-yl)benzoic acid]",EC50,E824V mPIEZO1,760 nM
same,EC50,G1994D mPIEZO1; 1.5 min exposure,1000 nM
same,"Mean (concentration-response, Figure 5g)",G1994D mPIEZO1; Yoda2b concentration 0.01 µM,-0.02242
same,"Mean (concentration-response, Figure 5g)",G1994D mPIEZO1; Yoda2b concentration 0.03 µM,0.00849
same,"Mean (concentration-response, Figure 5g)",G1994D mPIEZO1; Yoda2b concentration 0.1 µM,0.01915
same,"Mean (concentration-response, Figure 5g)",G1994D mPIEZO1; Yoda2b concentration 0.3 µM,0.1358
same,"Mean (concentration-response, Figure 5g)",G1994D mPIEZO1; Yoda2b concentration 1 µM,0.5075
same,"Mean (concentration-response, Figure 5g)",G1994D mPIEZO1; Yoda2b concentration 3 µM,0.8675
same,"Mean (concentration-response, Figure 5g)",G1994D mPIEZO1; Yoda2b concentration 10 µM,1
same,"Mean (Ca2+ signal time course, Figure 4f)","R2351Q mPIEZO1; 0.3 µM, time 0 s",-0.00345
same,"Mean (Ca2+ signal time course, Figure 4f)","R2351Q mPIEZO1; 0.3 µM, time 5 s",-0.00122
same,"Mean (Ca2+ signal time course, Figure 4f)","R2351Q mPIEZO1; 0.3 µM, time 10 s",0.01286
same,"Mean (Ca2+ signal time course, Figure 4f)","R2351Q mPIEZO1; 0.3 µM, time 15 s",0.00659
same,"Mean (Ca2+ signal time course, Figure 4f)","R2351Q mPIEZO1; 0.3 µM, time 20 s",-0.0106
same,"Mean (Ca2+ signal time course, Figure 4f)","R2351Q mPIEZO1; 0.3 µM, time 25 s",-0.00417
same,"Mean (Ca2+ signal time course, Figure 4f)","R2351Q mPIEZO1; 0.3 µM, time 30 s",-0.1638
same,"Mean (Ca2+ signal time course, Figure 4f)","R2351Q mPIEZO1; 0.3 µM, time 35 s",-0.1525
same,"Mean (Ca2+ signal time course, Figure 4f)","R2351Q mPIEZO1; 0.3 µM, time 40 s",0.1031
same,"Mean (Ca2+ signal time course, Figure 4f)","R2351Q mPIEZO1; 0.3 µM, time 45 s",0.1823
same,"Mean (Ca2+ signal time course, Figure 4f)","R2351Q mPIEZO1; 0.3 µM, time 50 s",0.2367
same,"Mean (Ca2+ signal time course, Figure 4f)","R2351Q mPIEZO1; 0.3 µM, time 55 s",0.2605
same,"Mean (Ca2+ signal time course, Figure 4f)","R2351Q mPIEZO1; 0.3 µM, time 60 s",0.2818
same,"Mean (Ca2+ signal time course, Figure 4f)","R2351Q mPIEZO1; 0.3 µM, time 65 s",0.2859
same,"Mean (Ca2+ signal time course, Figure 4f)","R2351Q mPIEZO1; 0.3 µM, time 70 s",0.3055
same,"Mean (Ca2+ signal time course, Figure 4f)","R2351Q mPIEZO1; 0.3 µM, time 75 s",0.2731
same,"Mean (Ca2+ signal time course, Figure 4f)","R2351Q mPIEZO1; 0.3 µM, time 80 s",0.2811
same,"Mean (Ca2+ signal time course, Figure 4f)","R2351Q mPIEZO1; 0.3 µM, time 85 s",0.2788
same,"Mean (Ca2+ signal time course, Figure 4f)","R2351Q mPIEZO1; 0.3 µM, time 90 s",0.2616
same,"Mean (Ca2+ signal time course, Figure 4f)","R2351Q mPIEZO1; 0.3 µM, time 95 s",0.2726
same,"Mean (Ca2+ signal time course, Figure 4f)","R2351Q mPIEZO1; 0.3 µM, time 100 s",0.2623
same,"Mean (Ca2+ signal time course, Figure 4f)","R2351Q mPIEZO1; 0.3 µM, time 105 s",0.2451
same,"Mean (Ca2+ signal time course, Figure 4f)","R2351Q mPIEZO1; 0.3 µM, time 110 s",0.2677
same,"Mean (Ca2+ signal time course, Figure 4f)","R2351Q mPIEZO1; 0.3 µM, time 115 s",0.2432
same,"Mean (Ca2+ signal time course, Figure 4f)","R2351Q mPIEZO1; 0.3 µM, time 120 s",0.2668
same,"Mean (Ca2+ signal time course, Figure 4f)","R2351Q mPIEZO1; 0.3 µM, time 125 s",0.2392
same,"Mean (Ca2+ signal time course, Figure 4f)","R2351Q mPIEZO1; 0.3 µM, time 130 s",0.2157
same,"Mean (Ca2+ signal time course, Figure 4f)","R2351Q mPIEZO1; 3 µM, time 0 s",-0.0127
same,"Mean (Ca2+ signal time course, Figure 4f)","R2351Q mPIEZO1; 3 µM, time 5 s",-0.01559
same,"Mean (Ca2+ signal time course, Figure 4f)","R2351Q mPIEZO1; 3 µM, time 10 s",0.01198
same,"Mean (Ca2+ signal time course, Figure 4f)","R2351Q mPIEZO1; 3 µM, time 15 s",0.01352
same,"Mean (Ca2+ signal time course, Figure 4f)","R2351Q mPIEZO1; 3 µM, time 20 s",7.66E-04
same,"Mean (Ca2+ signal time course, Figure 4f)","R2351Q mPIEZO1; 3 µM, time 25 s",0.00202
same,"Mean (Ca2+ signal time course, Figure 4f)","R2351Q mPIEZO1; 3 µM, time 30 s",-0.4931
same,"Mean (Ca2+ signal time course, Figure 4f)","R2351Q mPIEZO1; 3 µM, time 35 s",-0.08324
same,"Mean (Ca2+ signal time course, Figure 4f)","R2351Q mPIEZO1; 3 µM, time 40 s",0.5902
same,"Mean (Ca2+ signal time course, Figure 4f)","R2351Q mPIEZO1; 3 µM, time 45 s",0.919
same,"Mean (Ca2+ signal time course, Figure 4f)","R2351Q mPIEZO1; 3 µM, time 50 s",1.153
same,"Mean (Ca2+ signal time course, Figure 4f)","R2351Q mPIEZO1; 3 µM, time 55 s",1.288
same,"Mean (Ca2+ signal time course, Figure 4f)","R2351Q mPIEZO1; 3 µM, time 60 s",1.4
same,"Mean (Ca2+ signal time course, Figure 4f)","R2351Q mPIEZO1; 3 µM, time 65 s",1.461
same,"Mean (Ca2+ signal time course, Figure 4f)","R2351Q mPIEZO1; 3 µM, time 70 s",1.455
same,"Mean (Ca2+ signal time course, Figure 4f)","R2351Q mPIEZO1; 3 µM, time 75 s",1.399
same,"Mean (Ca2+ signal time course, Figure 4f)","R2351Q mPIEZO1; 3 µM, time 80 s",1.41
same,"Mean (Ca2+ signal time course, Figure 4f)","R2351Q mPIEZO1; 3 µM, time 85 s",1.397
same,"Mean (Ca2+ signal time course, Figure 4f)","R2351Q mPIEZO1; 3 µM, time 90 s",1.327
same,"Mean (Ca2+ signal time course, Figure 4f)","R2351Q mPIEZO1; 3 µM, time 95 s",1.295
same,"Mean (Ca2+ signal time course, Figure 4f)","R2351Q mPIEZO1; 3 µM, time 100 s",1.247
same,"Mean (Ca2+ signal time course, Figure 4f)","R2351Q mPIEZO1; 3 µM, time 105 s",1.236
same,"Mean (Ca2+ signal time course, Figure 4f)","R2351Q mPIEZO1; 3 µM, time 110 s",1.129
same,"Mean (Ca2+ signal time course, Figure 4f)","R2351Q mPIEZO1; 3 µM, time 115 s",1.087
same,"Mean (Ca2+ signal time course, Figure 4f)","R2351Q mPIEZO1; 3 µM, time 120 s",1.099
same,"Mean (Ca2+ signal time course, Figure 4f)","R2351Q mPIEZO1; 3 µM, time 125 s",1.0906
same,"Mean (Ca2+ signal time course, Figure 4f)","R2351Q mPIEZO1; 3 µM, time 130 s",0.9817
same,"Mean (concentration-response, Figure 4g)",R2351Q mPIEZO1; Yoda2b concentration 0.01 µM,6.31E-04
same,"Mean (concentration-response, Figure 4g)",R2351Q mPIEZO1; Yoda2b concentration 0.03 µM,0.01052
same,"Mean (concentration-response, Figure 4g)",R2351Q mPIEZO1; Yoda2b concentration 0.1 µM,0.03752
same,"Mean (concentration-response, Figure 4g)",R2351Q mPIEZO1; Yoda2b concentration 0.3 µM,0.1939
same,"Mean (concentration-response, Figure 4g)",R2351Q mPIEZO1; Yoda2b concentration 1 µM,0.4898
same,"Mean (concentration-response, Figure 4g)",R2351Q mPIEZO1; Yoda2b concentration 3 µM,0.7217
same,"Mean (concentration-response, Figure 4g)",R2351Q mPIEZO1; Yoda2b concentration 10 µM,0.9598
same,channel activation compared with Yoda1,"R2351Q mPIEZO1; side-by-side, same 96-well plate",more potently activated by Yoda2b
same,EC50,WT mPIEZO1,140 nM
